Source: patent US8241845B2, “Steroid 5α-reductase” (Health Research Inc., priority 2005, dated 2012)

T1: SRD5AIII (Homo sapiens, UniProt Q9H8P0)
T1 construct: expressed in transfected cells; host or cells: CV-1 (monkey kidney) cells infected with Ad-SRD5AIII; cell-free homogenate
T1 sequence (Q9H8P0 1-318): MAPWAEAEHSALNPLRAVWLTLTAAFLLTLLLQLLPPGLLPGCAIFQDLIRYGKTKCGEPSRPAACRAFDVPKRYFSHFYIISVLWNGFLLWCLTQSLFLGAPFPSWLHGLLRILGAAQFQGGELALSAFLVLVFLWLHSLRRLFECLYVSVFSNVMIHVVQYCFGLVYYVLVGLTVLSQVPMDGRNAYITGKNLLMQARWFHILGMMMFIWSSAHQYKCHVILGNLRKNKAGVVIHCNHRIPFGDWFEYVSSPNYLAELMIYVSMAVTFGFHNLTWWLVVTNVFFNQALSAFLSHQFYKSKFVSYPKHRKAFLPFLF

B1: SRD5AIII: novel steroid 5α-reductase isozyme, 318 amino acids, SEQ ID NO:2 (protein)
chain: T1 sequence (Q9H8P0 1-318)
modifications: human

What was measured:
prostate cancer (CaP) [1] = experiment: Treatment of men with prostate cancer (CaP) with SRD5A inhibitors; format: in vivo, human; details: patients at Roswell Park Cancer Institute
SRD5A = details: cited from earlier work
prostate cancer (CaP) [2] = details: Thompson et al. 2003; cited from earlier work
SRD5AIII = molecular target: T1, SRD5AIII; experiment: Recombinant SRD5AIII in vitro assay (conversion of T to DHT, TLC); format: biochemical
Method: Recombinant SRD5AIII in vitro assays. Ad-SRD5AIII infected CV-1 cells and uninfected CV-1 control cells were prepared and assayed for SRD5AIII using methods of Titus et al. (Titus et al. Clin Cancer Res 2005; 11:4365-4371) and Pratis et al. (Pratis et al. J Steroid Biochem Mol Biol 2000; 75:75-82). All steps prior to incubation were carried out at 4° C. SRD5AIII specific activity was expressed in pmol/mg protein/hr using Ad-SRD5AIII infected CV-1 cells.
Ad-SRD5AIII infected CV-1 cells or uninfected CV-1 cells were homogenized in 0.5 ml ice-cold homogenization buffer (50 mM potassium phosphate [pH 7.4], 0.25M sucrose, 1 mM EDTA, 1 mM dithiothreitol, 1 mM fresh phenylmethylsulfonyl chloride, 1× Complete™ protease inhibitor [Roche, Indianapolis, Ind.] using a PowerGen 125 (Fischer Scientific) for two 10-second bursts and sonicated (Branson Sonifier CD200, SmilthKine) at 20% power for 15 one-second bursts. Final homogenates were centrifuged at 500×g for 1 min to remove particulate. The resulting cell free supernatants were placed on ice and used immediately. Protein concentrations were measured using the procedure of Lowry et al. (Lowry et al. J Biol Chem 1951; 193:265-75).
The buffer for all incubations contained 100 mM Tris-citrate, 0.5 mM dithiothreitol, 0.5 mM NADPH and 1 μCi ^3H-testosterone (New England Nuclear, Boston, Mass.). […] Incubations were performed in total volume 250 μl at pH 7.0 and pH 5.0. […]
The conversion of T to dihydrotestosterone (DHT), androstanedione and androsterone was analyzed using thin layer chromatography (TLC, 33). […] Control incubations were analyzed as described above.
The amount of radioactive DHT, androstanedione and androsterone was calculated as percent total radioactivity (^3H) recovered from the thin layer chromatography lane. […]
Anti-6X-His and anti-X-press antibodies were used to evaluate the expression level of 6X-His and X-press-tagged SRD5AIII in infected CV1 cells. […] However, the molecular weight of the detected band was higher than the expected SRD5AIII molecular weight of about 37 kDa. […]

Row | Molecule | Response in patients, early results (prostate cancer (CaP) [1]) | Inhibition of SRD5A activity (SRD5A) | Efficacy as treatment for CaP (prostate cancer (CaP) [2]) | pH optimum (SRD5AIII) | SRD5AIII enzyme activity (SRD5AIII; pH 5.0, 1 μM T substrate, n=1) | SRD5AIII specific activity after subtracting background activity (SRD5AIII; pH 7.0, 5 μM T substrate, n=3, Ad-SRD5AIII infected CV-1 cell homogenate) [pmol/mg protein/hour]
1 | C[C@]12C=CC(=O)N[C@@H]1CC[C@@H]1[C@@H]2CC[C@]2(C)[C@@H](C(=O)Nc3cc(C(F)(F)F)ccc3C(F)(F)F)CC[C@@H]12 [dutasteride, Dutasteride] | incomplete remission | neither finasteride nor dutasteride inhibits SRD5A activity completely | – | – | – | –
2 | CC(C)(C)NC(=O)[C@H]1CC[C@H]2[C@@H]3CC[C@H]4NC(=O)C=C[C@]4(C)[C@H]3CC[C@]12C [finasteride] | – | neither finasteride nor dutasteride inhibits SRD5A activity completely | Lack of efficacy | – | – | –
3 | B1 | – | – | – | ~7.0 | not detected | 15.6
